US6737058B2, “Methods for inhibiting endothelial cell and fibrinogen mediated inflammation using fibrinogen specific antibodies” (The Scripps Research Institute, priority 1992, dated 2004)

How the values were obtained:
HUVEC [1] = test: Iodinated D30 binding to HUVEC monolayers and its competition; parameters: species or system human; conditions: 50 fold molar excess of cold fibrinogen; myoglobin as nonspecific protein
Procedure: Binding assays described above in Example 3A2) were also performed with the fibrinogen homolog, D30, to determine if that region of fibrinogen also immunoreacted with HUVEC. Since D30 was known to bind to leukocytes via the Mac-1 receptor as described by Altieri et al., J. Biol. Chem., 265:12119-12122 (1990), these experiments were performed to determine if regions of fibrinogen mediating the binding of leukocytes to HUVEC are contained within the D30 fragment. For this analysis, the D30 fragment of fibrinogen prepared in Example 1B was labelled with ^125I as described for labelling of fibrinogen above. Iodinated D30 was admixed to HUVEC monolayers at a concentration of 10 μg/ml to form a binding complex. After washing the cells to remove the unbound D30 as described in Example 3A2) above, the cells were solubilized and the amount of bound radioactivity was determined. The binding of D30 to HUVEC was maximal at 120 minutes of the maintenance period with approximately 60,000 cpm.

HUVEC [2] = test: Inhibition of 125I-labelled fibrinogen binding to HUVEC by cold fibrinogen, anti-VNR antibodies and RGD/RGE peptides; parameters: species or system human
Procedure: Binding of ^125I-labelled fibrinogen binding to HUVEC assays were performed in the presence of 50 molar excess of unlabelled fibrinogen in order to confirm the specificity of binding as shown in Example 3A. The binding assay was performed as described in Example 3A with the exception that unlabelled fibrinogen was admixed to HUVEC at a 50 molar excess (approximately […] fibrinogen) concurrently with 50 μg/ml of ^125I-labelled fibrinogen. The protein-cell admixtures were maintained at 22° C. for 30 minutes to allow for binding of fibrinogen to HUVEC. In addition to cold fibrinogen, a 50 fold molar excess of BSA was separately admixed as a control. The amount of fibrinogen bound under the above conditions was quantitated as described in Example 3A. The uninhibited total binding of ^125I-labelled fibrinogen saturated after 30 minutes at approximately 4000 cpm per well. […] The binding of fibrinogen to the HUVEC surface fibrinogen receptor is therefore specific.
The specificity of binding to an RGD-independent fibrinogen receptor was confirmed in competition assays performed as described above in the presence of monoclonal antibodies against the beta subunit of the RGD-dependent VNR and in the presence of RGD-containing peptides. For the assays in which the ability of anti-VNR monoclonal antibodies, designated mAb 609 and mAb 7E3, to inhibit the binding of ^125I-labelled fibrinogen to HUVEC, the antibodies were separately maintained at a concentration of 25 μg/ml with HUVEC for 20 minutes at 37° C. After the maintenance period, the antibody-treated HUVEC were washed once with serum-free RPMI 1640 to remove any unbound antibody. Labelled fibrinogen was then admixed to the treated HUVEC at a concentration of 50 μg/ml in the presence of 2.5 mM CaCl2 and […] PPack. The resultant admixtures were maintained for 10-30 minutes at 22° C. The fibrinogen-treated HUVEC were then washed, solubilized and counted as described in Example 3A.
To confirm that the fibrinogen binding site on HUVEC was not RGD dependent, inhibition assays performed as described above for inhibiting with antibodies except that they were done in the presence of 1.0 mM of an RGD-containing peptide. A control RGE-containing peptide was also included in the assay. At selected time points over the time course of one hour, the HUVEC were harvested as described in Example 3A.

fibrinogen: fibrinogen isolated from fresh plasma by cold ethanol fractionation, fibronectin-free
competition of D30 binding to HUVEC (HUVEC [1]): specifically competed | uninhibited total binding of 125I-labelled fibrinogen at saturation (HUVEC [2]; 50 μg/ml, after 30 minutes, 22° C.): approximately 4000 cpm per well | inhibition of 125I-labelled fibrinogen binding to HUVEC (HUVEC [2]; 50 molar excess of unlabelled protein, 50 μg/ml labelled fibrinogen, 22° C., 30 minutes): half that of the total uninhibited binding | inhibition of 125I-labelled fibrinogen binding to HUVEC (FIG. 7) (HUVEC [2]; cold fibrinogen in 50 molar excess, 10-30 minutes): almost completely inhibited | inhibition of 125I-labelled fibrinogen binding to HUVEC (FIG. 8) (HUVEC [2]; cold fibrinogen, time course of one hour): completely inhibited
